# In patent US9314383B2, “Absorptive article” (UNICHARM CORPORATION, priority 2012, dated 2016):
# Source text: The term “solubility” used herein in regard to water solubility includes cases where the sample completely dissolves in deionized water to form a homogeneous mixture, and cases where the sample is completely emulsified. Here, “completely” means that no mass of the sample remains in the deionized water.
Water solubility [g],Water solubility (g),SMILES
<0.05,,CCCCC(CC)C(=O)OCC(COC(=O)C(CC)CCCC)OC(=O)C(CC)CCCC (stereo not drawn) [PANACET 800B]
<0.05,,"CCCCC(CC)C(=O)OCC(C)(C)COC(=O)C(CC)CCCC (stereo not drawn) [H-208BRS, Neopentyl glycol di(2-ethylhexanoate)]"

# Second part, the compound before the results:
SMILES,Water solubility [g],Water solubility (g)
CCCCCCCC(=O)OCC(COC(=O)CCCCCCC)OC(=O)CCCCCCC [PANACET 800],<0.05,
CC(C)CCCCCCCCCCCCCCCOC(=O)CC(O)C(=O)OCCCCCCCCCCCCCCCC(C)C (stereo not drawn) [Diisostearyl malate],,20< g
CCCCOC(=O)CC(CC(=O)OCCCC)(OC(C)=O)C(=O)OCCCC [Tributyl O-acetylcitrate],<0.05,
"CCCCCCCCCCCC(=O)OCC(O)CO (stereo not drawn) [90-L2 Lauric acid monoglyceride, lauric acid monoglyceride]",,20< g
